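Growth conditions: 96-well plates. Treatment: test compound, 48 hours, 5 concentrations. Analysis: linear interpolation between bracketing concentrations; unreached endpoints set to highest concentration. Abbreviation: GI50, concentration required for 50% inhibition of growth.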 Activity calls are given as the source filed them. Rule as the data show it: active = GI50 up to about 1.1 µM and inactive = higher. Where a SMILES comes first, the peptide text is derived from it. [ ]: non-standard residue; d: D form. Hiv = CC(C)[C@H](O)C(=O)O
Legend:
Assay in all cases: NCI-60 cell line screen, 48 h
[1] = test system: 786-0
[2] = test system: UO-31
[3] = test system: SF-268
[4] = test system: SF-539
[5] = test system: OVCAR-4
[6] = test system: UACC-62
[7] = test system: HCT-15
[8] = test system: NCI-H522
[9] = test system: SR
[10] = test system: SF-295
[11] = test system: SN12C
[12] = test system: Hs-578T
[13] = test system: SK-MEL-5
[14] = test system: HT-29
[15] = test system: KM12
[16] = test system: SK-MEL-28
[17] = test system: MDA-N
[18] = test system: HCT-116
[19] = test system: SK-MEL-2
[20] = test system: HL-60

Row | Compound | GI50 [1] | GI50 [2] | GI50 [3] | GI50 [4] | GI50 [5] | GI50 [6] | GI50 [7] [µM] | GI50 [8] | GI50 [9] | GI50 [10] | GI50 [11] | GI50 [12] | GI50 [13] | GI50 [14] | GI50 [15] | GI50 [16] | GI50 [17] | GI50 [18] | GI50 [19] | GI50 [20]
1 | Clc1ncnc(Cl)c1Cl | > 100 µM (inactive) | > 100 µM (inactive) | > 100 µM (inactive) | > 100 µM (inactive) | > 100 µM (inactive) | > 100 µM (inactive) | > 100 | > 100 µM (inactive) | > 100 µM (inactive) | > 100 µM (inactive) | > 100 µM (inactive) | > 100 µM (inactive) | > 100 µM (inactive) | > 100 µM (inactive) | > 100 µM (inactive) | > 100 µM (inactive) | > 100 µM (inactive) | > 100 µM (inactive) | – | –
2 | CC(C)/C(Cl)=N/OC(=O)Nc1cccc(C(F)(F)F)c1 | 2.52 µM (inactive) | 7.96 µM (inactive) | 23.1 µM (inactive) | – | 7.05 µM (inactive) | 13.6 µM (inactive) | 1.82 | 0.14 µM (active) | 1.06 µM (active) | 18.3 µM (inactive) | 7.1 µM (inactive) | 9.55 µM (inactive) | 8.05 µM (inactive) | 4.98 µM (inactive) | 15.3 µM (inactive) | 5.45 µM (inactive) | 10.6 µM (inactive) | 8.2 µM (inactive) | 17.8 µM (inactive) | 0.778 µM (active)
3 | CCc1c2c([nH]c(=S)c1C#N)CCC2 | > 100 µM (inactive) | > 100 µM (inactive) | > 100 µM (inactive) | – | > 100 µM (inactive) | > 100 µM (inactive) | > 100 | > 100 µM (inactive) | 74.5 µM (inactive) | > 100 µM (inactive) | – | > 100 µM (inactive) | > 100 µM (inactive) | > 100 µM (inactive) | > 100 µM (inactive) | > 100 µM (inactive) | > 100 µM (inactive) | > 100 µM (inactive) | > 100 µM (inactive) | > 100 µM (inactive)
4 | Cc1c(C)c(S(=O)(=O)N(CCCN)OCCCN)c(C)c2c1OC(C)(C)C2 | 25.5 µM (inactive) | 33.4 µM (inactive) | 27.6 µM (inactive) | – | 30.7 µM (inactive) | 51.4 µM (inactive) | 68.7 | 15.5 µM (inactive) | 34.8 µM (inactive) | 29.8 µM (inactive) | 61.1 µM (inactive) | 18.8 µM (inactive) | 30.8 µM (inactive) | 45.8 µM (inactive) | 17.6 µM (inactive) | 83.6 µM (inactive) | 19 µM (inactive) | 35.3 µM (inactive) | 9.64 µM (inactive) | –
5 | C=CCN(c1cc(OC)c(NC(C)=O)cc1[N+](=O)[O-])S(C)(=O)=O | > 100 µM (inactive) | > 100 µM (inactive) | > 100 µM (inactive) | – | > 100 µM (inactive) | > 100 µM (inactive) | > 100 | 0.0349 µM (active) | > 100 µM (inactive) | > 100 µM (inactive) | > 100 µM (inactive) | > 100 µM (inactive) | > 100 µM (inactive) | – | > 100 µM (inactive) | > 100 µM (inactive) | > 100 µM (inactive) | > 100 µM (inactive) | > 100 µM (inactive) | > 100 µM (inactive)
6 | CC(=O)N1C(Nc2nccs2)CCN1c1ccccc1 (stereo not drawn) | > 10 µM (inactive) | – | > 10 µM (inactive) | > 10 µM (inactive) | > 10 µM (inactive) | – | > 10 | – | > 10 µM (inactive) | > 10 µM (inactive) | > 10 µM (inactive) | > 10 µM (inactive) | > 10 µM (inactive) | > 10 µM (inactive) | – | > 10 µM (inactive) | > 10 µM (inactive) | > 10 µM (inactive) | > 10 µM (inactive) | > 10 µM (inactive)
7 | CN(C)/C=N/S(=O)(=O)c1nn2c(C=O)c(-c3ccccc3)nc2s1 | 5.62 µM (inactive) | 5.36 µM (inactive) | 29.5 µM (inactive) | 17.7 µM (inactive) | 22.7 µM (inactive) | 18.2 µM (inactive) | 9.46 | 3.37 µM (inactive) | 5.74 µM (inactive) | 52.8 µM (inactive) | 13.5 µM (inactive) | 19.5 µM (inactive) | 11.5 µM (inactive) | 1.94 µM (inactive) | 22.6 µM (inactive) | 9.2 µM (inactive) | 10.2 µM (inactive) | 3.26 µM (inactive) | 43 µM (inactive) | –
8 | CC(Nc1ncc2c(n1)-c1ccccc1OC2)C(=O)O (stereo not drawn) | > 100 µM (inactive) | 41.2 µM (inactive) | > 100 µM (inactive) | > 100 µM (inactive) | > 100 µM (inactive) | > 100 µM (inactive) | 85.9 | – | 48.5 µM (inactive) | > 100 µM (inactive) | 59.7 µM (inactive) | 82.4 µM (inactive) | > 100 µM (inactive) | 39.5 µM (inactive) | > 100 µM (inactive) | > 100 µM (inactive) | > 100 µM (inactive) | > 100 µM (inactive) | > 100 µM (inactive) | 6.89 µM (inactive)
9 | CC(=O)C(C(=O)c1ccc(C)cc1)[C@H]1OC(C)(C)O[C@H]1[C@H]1COC(C)(C)O1 (stereo partly drawn) | 2.88 µM (inactive) | 6.98 µM (inactive) | 2.81 µM (inactive) | 1.87 µM (inactive) | 2.53 µM (inactive) | 6.1 µM (inactive) | 2.99 | 2.34 µM (inactive) | 1.42 µM (inactive) | 7.78 µM (inactive) | 1.9 µM (inactive) | 3.08 µM (inactive) | 5.08 µM (inactive) | 2.2 µM (inactive) | 8.75 µM (inactive) | 6.18 µM (inactive) | 1.85 µM (inactive) | 2.25 µM (inactive) | 2.92 µM (inactive) | –
10 | Cc1c(-c2ccccc2)nn2cc(-c3ccccc3)nnc12 | 17.2 µM (inactive) | 29.1 µM (inactive) | 28.6 µM (inactive) | – | 44.5 µM (inactive) | 17.9 µM (inactive) | 14.7 | 15.5 µM (inactive) | 33.5 µM (inactive) | 34.8 µM (inactive) | 37.9 µM (inactive) | 25.2 µM (inactive) | 16.3 µM (inactive) | 24.2 µM (inactive) | 29 µM (inactive) | 27.6 µM (inactive) | 19.7 µM (inactive) | 20.7 µM (inactive) | 15.1 µM (inactive) | –
11 | CCOC(=O)c1sc2[n+](c1C)C(=O)/C(=C/c1ccc([N+](=O)[O-])cc1)S2 | 22.2 µM (inactive) | 15 µM (inactive) | 12.9 µM (inactive) | 21.2 µM (inactive) | 56.5 µM (inactive) | 17.9 µM (inactive) | – | – | 24.3 µM (inactive) | 18.5 µM (inactive) | 36.6 µM (inactive) | 23.2 µM (inactive) | 38.8 µM (inactive) | 16.8 µM (inactive) | 18.4 µM (inactive) | 27.4 µM (inactive) | 27.7 µM (inactive) | 20.8 µM (inactive) | 20.7 µM (inactive) | 75.7 µM (inactive)
12 | O=c1c(Cc2ccc(Cl)cc2)nnc2sc(-c3ccc(-c4ccc(F)c(Cl)c4)o3)nn12 | 71 µM (inactive) | 33.6 µM (inactive) | 76.6 µM (inactive) | > 100 µM (inactive) | 42.1 µM (inactive) | 53.2 µM (inactive) | 34.9 | 62.1 µM (inactive) | – | 88.9 µM (inactive) | 42.7 µM (inactive) | > 100 µM (inactive) | > 100 µM (inactive) | 50.5 µM (inactive) | 91.2 µM (inactive) | > 100 µM (inactive) | 95.3 µM (inactive) | 29.7 µM (inactive) | 51.4 µM (inactive) | 43.7 µM (inactive)
13 | CN(C)c1ncc(-c2c[nH]c3ccccc23)nc1-c1c[nH]c2ccccc12 | 2.12 µM (inactive) | 3.73 µM (inactive) | 10.6 µM (inactive) | 4.21 µM (inactive) | 5.32 µM (inactive) | 1.99 µM (inactive) | 3.14 | – | 3.24 µM (inactive) | 2.33 µM (inactive) | 2.88 µM (inactive) | 2.78 µM (inactive) | 3.72 µM (inactive) | 2.19 µM (inactive) | 2.19 µM (inactive) | 2.89 µM (inactive) | 2.08 µM (inactive) | 3.13 µM (inactive) | 3.83 µM (inactive) | 2.02 µM (inactive)
14 | CC(=O)Oc1ccc(/C=C/C(=O)O[C@@H](C(=O)O)[C@@H](OC(=O)/C=C/c2ccc(OC(C)=O)c(OC(C)=O)c2)C(=O)O)cc1OC(C)=O | > 100 µM (inactive) | > 100 µM (inactive) | > 100 µM (inactive) | – | > 100 µM (inactive) | > 100 µM (inactive) | > 100 | > 100 µM (inactive) | > 100 µM (inactive) | > 100 µM (inactive) | > 100 µM (inactive) | > 100 µM (inactive) | > 100 µM (inactive) | – | > 100 µM (inactive) | > 100 µM (inactive) | > 100 µM (inactive) | > 100 µM (inactive) | > 100 µM (inactive) | –
15 | CC(C)[C@@H]1OC(=O)[C@@H](C)NC(=O)[C@@H]2CCCN2C1=O (cyclo([Hiv]-Pro-[dA])) | > 100 µM (inactive) | – | > 100 µM (inactive) | > 100 µM (inactive) | > 100 µM (inactive) | > 100 µM (inactive) | > 100 | – | > 100 µM (inactive) | > 100 µM (inactive) | > 100 µM (inactive) | > 100 µM (inactive) | > 100 µM (inactive) | > 100 µM (inactive) | > 100 µM (inactive) | > 100 µM (inactive) | > 100 µM (inactive) | > 100 µM (inactive) | > 100 µM (inactive) | > 100 µM (inactive)

From ChEMBL document CHEMBL1201862, “PubChem BioAssay data set” (2004)
